Results from US5324725A, “7-fused 2-(piperazinoalkyl) indole derivatives, intermediates and compositions thereof” (Kali-Chemie Pharma GmbH, priority 1991, dated 1994).
Like-named read-outs stand apart in the source and are kept apart here.

Legend:
histamine (H1) receptor = target: T1, histamine (H1) receptor (Cavia porcellus, UniProt P31389); assay: Antihistamine (H1) effect: inhibition of histamine-induced contractions of isolated guinea-pig ileum in vitro; assay type: cell-based, guinea-pig (Dunkin Hartley); conditions: histamine 5 × 10^-6 mol/l, test substance 10^-6 mol/l
T1 construct: isolated smooth muscle of the guinea-pig ileum; from tissue; host or cells: isolated ileum segments of Dunkin Hartley guinea-pigs
Method: 3. Investigation of the antihistamine (H1) effect based on histamine (H1) receptor antagonism in vitro.
To investigate the histamine (H1) receptor antagonism of the substances, the inhibitory effect thereof on histamine-induced contractions of the smooth musculature of isolated organ was determined in vitro. Isolated strips of organ from the ileum were used. In an organ bath of physiological saline solution, they react to addition of histamine by contracting. Addition of the compounds of the invention decreases this histamine-induced contraction of the smooth musculature of the ileum strips. The extent of decrease of the contraction is an indication of the antihistamine (H1) activity of the compounds. The investigation is carried out analogously to the method originally described by Magnus (Pflugers Arch. 102, 123 (1904)).
Experimental description of the determination of the inhibitory effect on the contraction induced by a 5×10^-6 molar histamine concentration on isolated smooth muscle of the guinea-pig ileum.
For the test, 1.5 cm long segments of the ileum from Dunkin Hartley guinea-pigs having a body weight of 300-500 g were employed. Each strip was placed in an organ bath of 10 ml of Krebs-Henseleit physiological saline solution and attached to a customary apparatus for isotonically measuring changes in length of the ileum strip (automated Celaster measuring apparatus) so that the tissue is under a tension of 1 g. The bath was kept at a pH of 7.4 and aerated with a mixture of 5% CO2 and 95% O2. After an equilibration phase, an isotonic contraction of the tissue was produced by adding histamine in a final concentration of 5×10^-6 mol/l and was washed out again after a contact time of 30 seconds. Only those tissues in which three reproducible contractions were obtained at 10 minute intervals were used in the subsequent test. The test substances were then added in a final concentration of 10^-6 mol/l, and after a contact time of 30 seconds histamine was again added up to a concentration of 5×10^-6 mol/l. The contractions which occurred were measured over the course of 30 seconds. The tissue was then washed several times over a period of 10 minutes. A contraction challenge was then induced again by addition of histamine. The contractions which occurred were again measured over 30 seconds. The difference between the amplitude of the contraction obtained by histamine addition alone and the amplitude of the contraction obtained in the presence of the test substance was determined and calculated as % inhibition.
The inhibitory effects on the contractions induced by histamine 30 seconds after administration of the test substance and on the contractions induced by addition of histamine 10 minutes afterward are given in the table.

[1] = system: Passive cutaneous anaphylaxis (P.C.A.); assay: Inhibition of passive cutaneous anaphylaxis (P.C.A.); assay type: in vivo, rat (Sprague-Dawley); conditions: Rattus norvegicus, 1 h; rats, 2 × 10^-5 mol/kg p.o., one hour before ovalbumin challenge
Method: (§1) 1. Determination of the inhibition of passive cutaneous anaphylaxis (P.C.A.) and of the anaphylactoid cutaneous reaction induced by histamine.
The P.C.A. reaction was carried out according to the methods described by Goose et al. (J.N. Immunology 16 (1969), 749) and by Martin et al (Arch. Pharmacol. 316 (1981), 186}.
The IgE-rich ovalbumin antiserum used in the test was obtained from immunized Brown-Norway rats. For immunization, the rats were given an i.p. injection of a mixture of 100 μg of ovalbumin with a Bordetella pertussis suspension (Vaxicoq®, Manufacturer: Institut Merieux, containing 5×10^9 organisms and 1.25 mg of Al(OH)3). After 20 days, the animals received a further i.p. injection of a solution of 10 μg of ovaIbumin in 0.5 ml of physiological saline solution for reimmunisation. After a further four days, the animals were bled, and the blood was centrifuged The antiserum obtained in this way was stored at -20° C. until use.
(§2) The determination of the inhibition of passive cutaneous anaphylaxis and the anaphylactoid cutaneous reaction induced by histamine was carried out as follows:
Sprague-Dawley rats having a body weight of 150-180 g were injected intradermally in one flank with 50 μl of a 1:75 dilution of the IgE-rich ovalbumin antiserum in physiological sodium chloride solution for passive sensitization to ovalbumin.
24 hours after sensitization a solution of 8.25 mg/kg of ovalbumin and 26.4 mg/kg of a blue dye (Evans' Blue) was administered i.v. to the rats according to Martin et al. to induce passive cutaneous anaphylaxis. The ovalbumin challenge caused a local anaphylactic reaction at the site at which the antiserum had been injected.
(§3) On the test days, the test substances were dissolved in distilled water which contained 1% by volume of dimethylformamide and 1% by volume of Tween®20 (polyoxyethylene(20) sorbitan monolaurate). One hour before the challenging ovalbumin administration, each animal received 2×10^-5 mol/kg of test substance administered orally in 0.5 ml of solution. A control group received only the solvent for comparison.
(§4) The oedematous anaphylactic (P.C.A.) and anaphylactoid (histamine-induced) reactions caused by the challenging i.v. ovalbumin injection, which are manifested by oedema formation, swelling and exudation of blue dye, were evaluated 30 minutes after challenge by the i.v. ovalbumin injection. This was done by visual determination of the extent to which the blue dye emerges at the sites of oedema formation. The percentage inhibition of anaphylactic and anaphylactoid reactions caused by the test substances was determined in comparison with the reactions of the control animals not treated with test substance with the aid of comparison scales.
(§5) The results obtained by the above test methods using compounds of the formula I are shown in the following Table A. The example numbers given for the compounds of formula I relate to the following preparation examples.

[2] = system: Histamine-induced anaphylactoid reactions; assay: Inhibition of anaphylactoid cutaneous reaction induced by histamine; assay type: in vivo, rat (Sprague-Dawley); conditions: Rattus norvegicus, 1 h; rats, 2 × 10^-5 mol/kg p.o., one hour before challenge; histamine intradermal
Method: as §1, §2
To determine the histamine-induced anaphylactoid skin reaction, the animals were injected intradermally in the flank opposite to the antiserum administration with 50 μl of a physiological saline solution containing 0.8 mg/ml of histamine directly before the i.v. injection of the solution containing the ovalbumin and the blue dye.
as §3, §4, §5

[3] = system: P.A.F.-induced aggregation of platelets from rabbit blood; assay: Anti-P.A.F. effect in vitro: inhibition of P.A.F.-induced platelet aggregation; assay type: cell-based, rabbit (New Zealand hybrids); conditions: test substance concentration 10^-5 mol/l; for inhibition at 10 µM: Oryctolagus cuniculus, Platelet
Excerpt: 4. Determination of anti-P.A.F. effect in vitro.
Platelet-activating factor (P.A.F.) is a phospholipid mediator which has several effects. The activation of platelet aggregation leads to the induction of protracted broncho contractions and hyperreactivity of the airways.
The effects of the test substances on platelet aggregation induced by adding P.A.F. to a platelet suspension obtained from rabbit blood was investigated by the method described by Mikashima et al. (Jap. J. Pharmacol. 44 (1987) 387-391).
A suspension of platelets originating from rabbit blood was used which contained 4×10^9 platelets/ml in a modified Tyrode buffer solution adjusted to pH 7.4. Tyrode solution is an aqueous solution containing 136.9 mmol of NaCl, 2.68 mmol of KCl, 2.31 mmol of CaCl2, 1.0 mmol of MgCl2, 11.9 mmol of NaHCO3, 1.45 mmol of NaH2 PO4 and 5.55 mmol of glucose per liter. This solution was modified by adding 1.3 mM/l of CaCl2 and 2.5 g/l of gelatin. The platelets were obtained from 10 ml blood samples from each of three rabbits (New Zealand hybrids, body weight 3-4 kg). For this, the blood samples were treated with ethylenediaminetetraacetic acid and washed by the method of Artley et al. (Brit. J. Hamatol. 19 (1970), 7-17). A platelet-rich plasma was then initially separated by centrifugation (20 minutes at 400×g). The platelets were separated from the plasma by centrifuging again for 15 minutes at 1400×g. After centrifuging, the platelets remaining as a sediment were resuspended in a calcium-free Tyrode buffer solution. 0.4 mmol of lysine acetylsalicylate were then added and after 15 minutes the blood platelets were sedimented again. The sediment was resuspended in the abovementioned modified Tyrode buffer solution, and the number of platelets in the resulting suspension was adjusted to the desired content.
A 40×10^-9 molar P.A.F. solution was used as the reagent. This solution was prepared from a 1.8×10^-3 molar stock solution in chloroform. For this, a 10μl sample of the stock solution was evaporated to dryness and redissolved in 180 μl of the modified Tyrode solution, to which 0.25% of dilapidated bovine serum albumin had been added. 10^-5 molar working solutions were then prepared from this and stored frozen. Samples of these solutions were appropriately diluted for the tests.
To carry out the tests, 50 μl of the platelet solution and 10 μl of a 40×10^-5 molar solution of the compound to be investigated were added to 330 μl of the modified Tyrode buffer solution with stirring (1000 rpm) in an aggregation tube provided with a small magnetic stirrer. This corresponds to a final test substance concentration of 10^-5 mol/l. After a preincubation time of 90seconds, 10 μl of the P.A.F. preparation were added. The aggregation occurring in the aggregation tubes was measured for 4-5 minutes using a computerized aggregometer.
The aggregation occurring in the test tubes containing only platelet suspension was rated as 0%. The aggregation occurring in test tubes containing platelet suspension and P.A.F. preparation was rated as 100%. The aggregation which still occurred in the presence of the test substances (i.e. during inhibition of the P.A.F.-induced platelet aggregation increase) was measured, and the resulting aggregation inhibition is calculated from this in %.

[4] = after 30 sec., read-out: in vitro (H1) receptor antagonism % inhibitory effect on histamine-induced contractions of the Ileum, after 30 sec.
[5] = after 10 min. (after washing), read-out: in vitro (H1) receptor antagonism % inhibitory effect on histamine-induced contractions of the Ileum, after 10 min.

T1 sequence (P31389 whole entry): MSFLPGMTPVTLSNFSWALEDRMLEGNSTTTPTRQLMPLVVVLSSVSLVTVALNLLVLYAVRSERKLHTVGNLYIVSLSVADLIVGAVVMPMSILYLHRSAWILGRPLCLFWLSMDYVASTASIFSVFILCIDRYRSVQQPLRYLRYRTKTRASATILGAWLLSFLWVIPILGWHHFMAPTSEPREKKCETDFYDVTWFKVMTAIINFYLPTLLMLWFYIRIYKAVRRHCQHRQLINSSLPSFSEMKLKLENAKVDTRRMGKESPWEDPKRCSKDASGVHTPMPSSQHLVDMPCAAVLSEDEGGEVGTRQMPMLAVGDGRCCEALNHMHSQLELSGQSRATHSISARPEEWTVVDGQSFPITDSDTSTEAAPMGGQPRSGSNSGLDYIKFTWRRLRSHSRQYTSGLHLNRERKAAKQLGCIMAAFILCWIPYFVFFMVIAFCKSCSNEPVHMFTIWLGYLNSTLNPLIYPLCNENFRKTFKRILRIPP

Row | inhibition at 1 µM (histamine (H1) receptor; [4]) [%] | inhibition at 1 µM (histamine (H1) receptor; [5]) [%] | SMILES | inhibition in vivo at 20 µmol/kg [1] [%] | inhibition in vivo at 20 µmol/kg [2] [%] | inhibition at 10 µM [3] [%] | other results
1 | – | – | CNc1cc2c3c(c1)c(CCN1CCN(c4cc(C)ccn4)CC1)c(C)n3CCC2 [Example 29, 5,6-Dihydro-2-methyl-8-methylamino-1-{2-[4-(4-methylpyridin-2-yl)piperazin-1-yl]ethyl}-4H-pyrrolo[3,2,1-ij]quinoline] | – | – | – | in vitro (H1) receptor antagonism % inhibitory effect on histamine-induced contractions of the Ileum, after 30 sec. (histamine (H1) receptor; after 30 sec.): 7%; in vitro (H1) receptor antagonism % inhibitory effect on histamine-induced contractions of the Ileum, after 10 min. (histamine (H1) receptor; after 10 min. (after washing)): 30%
2 | – | – | Cc1ccnc(N2CCN(CCCc3c(C)n4c5c(cccc35)CCC4)CC2)c1 [Example 17, 5,6-dihydro-2-methyl-1-{3-[4-(4-methylpyridin-2-yl)piperazin-1-yl]-propyl}-4H-pyrrolo[3,2,1-ij]quinoline] | 45 | 25 | – | –
3 | 12 | 92 | CSc1cc2c3c(c1)c(CCN1CCN(c4cc(C)ccn4)CC1)c(C)n3CCS2 [Example 78] | – | – | 98 | –
4 | 29 | 72 | Cc1ccnc(N2CCN(CCc3c(C)n4c5c(cccc35)CCC4CO)CC2)c1 (centres unmarked) [Example 18, 5,6-Dihydro-4-hydroxymethyl-2-methyl-1-{2-[4-(4-methylpyridin-2-yl)piperazin-1-yl]ethyl}-4H-pyrrolo[3,2,1-ij]-quinoline] | 90 | 80 | – | –
5 | – | – | Cc1ccc(-c2c(CCN3CCN(c4cc(C)ccn4)CC3)c3cccc4c3n2CCC4)cc1 [Example 86] | – | – | 100 | –
6 | 24 | 50 | Cc1cccc(N2CCN(CCc3c(C)n4c5c(cccc35)CCC4)CC2)n1 [Example 50] | 60 | 50 | – | –
7 | – | – | Cc1ccnc(N2CCN(CCc3c(Cc4ccccc4)n4c5c(cccc35)CCC4)CC2)c1 [Example 32, 2-Benzyl-5,6-dihydro-1-{2-[4-(4-methylpyridin-2-yl)-piperazin-1-yl]ethyl}-4H-pyrrolo[3,2,1-ij]quinoline] | – | – | 100 | –
8 | – | – | Cc1ccnc(N2CCN(CCc3c(-c4ccc(O)cc4)n4c5c(cccc35)CCC4)CC2)c1 [Example 97] | – | – | – | % inhibition of the P.A.F.-induced aggregation of platelets from rabbit blood [3]: 99%
9 | 6 | 14 | Cc1ccnc(N2CCN(CCc3c(C)n4c5c(cccc35)S(=O)(=O)CC4)CC2)c1 [Example 28b, 2,3-dihydro-5-methyl-6-{2-[4-(4-methylpyridin-2-yl)-piperazin-1yl]ethyl}-pyrrolo[1,2,3-de]-1,4-benzothiazine-1,1-dioxide] | 100 | 85 | – | –
10 | 35 | 48 | COc1cccc(N2CCN(CCc3c(C)n4c5c(cccc35)CCC4)CC2)c1 [Example 48] | 25 | 35 | – | –
11 | – | – | COc1ccc(-c2c(CCN3CCN(c4cc(C)ccn4)CC3)c3cccc4c3n2CCC4)cc1 [Example 96] | – | – | – | % inhibition of the P.A.F.-induced aggregation of platelets from rabbit blood [3]: 98%
12 | 10 | 71 | Cc1ccc(N2CCN(CCc3c(C)n4c5c(cc(C(=O)C(C)C)cc35)CCC4)CC2)nc1 [Example 95] | – | – | – | –
13 | 31 | 89 | Cc1ccnc(N2CCN(CCc3c(C)n4c5c(cccc35)CCCC4)CC2)c1 [Example 31, 4,5,6,7-tetrahydro-2-methyl-1-{2-[4-(4-methylpyridin-2-yl)piperazin-1-yl]ethyl}-pyrrolo[3,2,1-jk]benzazepine] | – | – | 95 | –
